One block for each compound: values may come before it.
Key:
KRAS^G12C = conditions: role: inhibitor, background statement, cited from earlier work
[1] = Stability testing: dissolution (FaSSIF), Example 2; format: physicochemical; conditions: FaSSIF pH 6.50; all crystalline samples, first two timepoints of amorphous samples
Description: (§1) Stability testing of the three ASDs prepared in Example 1 was conducted over 2 months (T=0, 1 month and 2 months) using XRPD, TGA, DSC, PSD, and dissolution tests (FaSSIF and biorelevant media).
(§2) Stability Testing: ASD samples were stored in low density polyethylene (LPDE) bags placed in a heat-sealed aluminum foil pouch along with desiccant. Foil pouches were then placed into a stability chamber at 25 °C/60% RH and taken out for stability testing (XRPD, TGA, DSC PSD, dissolution and biorelevant dissolution) at specified timepoints.
Dissolution (FaSSIF): The dissolution properties of ASDs 1-3 and the control spray-dried sotorasib were assessed as described herein. 5 mg of amorphous sotorasib (control), 5 mg of crystalline sotorasib (control), and 20 mg of ASDs1-3 as listed in Table 1 were added to separate 20 mL vials of FaSSIF (pH 6.50) and samples were collected at 5, 15, 20, 30, 60, 120, 180 min timepoints. […] The mobile phases were A:Water with 0.1% trifluoroacetic acid and B:Acetonitile with 0.1% trifluoroacetic acid. The method was a reverse gradient of 5% B 95% A to 98% B 2% A over 15 minutes using a wavelength 254 nm for detection and quantification.

[2] = Particle size distribution (laser diffraction), Example 1; format: physicochemical; conditions: Example 1, Table 1
Source text: Particle Size Distribution (PSD): Analysis of each of the samples was obtained using a Sympatec Helos laser diffraction analyzer. The results of the particle size analysis are shown in Table 1 (D10, D50, and D90 values).

[3] = Stability testing: XRPD, Example 2; format: physicochemical
Description: as §1, §2
X-Ray Powder Diffraction (XRPD) Analysis: XRPD data was obtained using a Panalytical PW3040-PRO diffractometer. Samples were scanned at room temperature (25 °C) in continuous mode from 3-45 degrees (2θ) with step size of 0.03 degrees at 45 kV and 40 mA with CuKα radiation (1.54 A). The incident beam path was equipped with a primary soller slit 0.04 rad and a divergence slit 0.38 mm, in a fixed slit mode. Samples were prepared on a low background sample holder and placed on a spinning stage with a rotation time of 4 sec.

[4] = Stability testing: Thermal Gravimetric analysis (TGA), Example 2; format: physicochemical
Description: as §1, §2
Thermal Gravimetric analysis (TGA): TGA was performed to evaluate presence for residual solvent and any thermal transitions which may result in weight loss. TGA was performed on a TA Instruments Discovery 550 Series analyzer at 5 °C/min from ambient temperature to 200 °C in a platinum pan under dry nitrogen at 25 ml/min. Sample size was ~2-8 mg.

[5] = Stability testing: DSC, Tg, Example 2; format: physicochemical
Description: as §1, §2
Differential Scanning Calorimetry (DSC) Analysis: DSC data is collected using a TA Instruments Q2500 DSC. Approximately, 2-6 mg of the sample was placed in a Tzero aluminum pan and sealed with Tzero lid. Method Log consist of equilibrating to −20 °C, holding Isothermal for 1.00 min, Ramping 10.00 °C/min to 160.0 °C, holding isothermal for 1.00 min, bringing down to Ramp of 10.00 °C/min to −20.00 °C, holding isothermal for 1.00 min, ramping 10.00 °C/min to 200 °C, marking end of cycle. Conditions were done under a nitrogen purge of about 50 mL/min.

[6] = Stability testing: particle size distribution (PSD), Example 2; format: physicochemical
Description: as §1, §2
Particle Size Distribution (PSD): Analysis of each of the samples was obtained using a Sympatec Helos laser diffraction analyzer. The results are shown below (D10, D50, and D90 values).

SMILES: C=CC(=O)N1CCN(c2nc(=O)n(-c3c(C)ccnc3C(C)C)c3nc(-c4c(O)cccc4F)c(F)cc23)[C@@H](C)C1 (atropisomer, axis not shown) [Sotorasib]
activity at the target protein, atropisomers (KRAS^G12C; (M)- v. (P)-configuration): more active at the target protein than the (P)-configuration
inhibition of KRAS^G12C (KRAS^G12C): specifically and irreversibly inhibits

solubility (samples not diluted) [1]: low solubility
SMILES: C=CC(=O)N1CCN(c2nc(=O)n(-c3c(C)ccnc3C(C)C)c3nc(-c4c(O)cccc4F)c(F)cc23)[C@@H](C)C1 [crystalline sotorasib]

D10 [2]: <1.0 μm
D50 [2]: <4.0 μm
D90 [2]: <16 μm
XRPD result ([3]; T = 0): amorphous
XRPD result ([3]; T = 1 month, 25 °C/60% RH): amorphous
XRPD result ([3]; T = 2 months, 25 °C/60% RH): amorphous
TGA result (weight change) ([4]; T = 0): <1%
TGA result (weight change) ([4]; T = 1 month, 25 °C/60% RH): <1%
TGA result (weight change) ([4]; T = 2 months, 25 °C/60% RH): <1%
DSC result - Tg ([5]; T = 0, n1): n1: 147.7 °C
DSC result - Tg ([5]; T = 0, n2): n2: 146.9 °C
DSC result - Tg ([5]; T = 1 month, n1, 25 °C/60% RH): n1: 148.4 °C
DSC result - Tg ([5]; T = 1 month, n2, 25 °C/60% RH): n2: 148.3 °C
DSC result - Tg ([5]; T = 2 months, n1, 25 °C/60% RH): n1: 149.1 °C
DSC result - Tg ([5]; T = 2 months, n2, 25 °C/60% RH): n2: 148.6 °C
PSD result - D10 ([6]; T = 0): 0.8 μm
PSD result - D50 ([6]; T = 0): 3.6 μm
PSD result - D90 ([6]; T = 0): 13.4 μm
PSD result - D10 ([6]; T = 1 month, 25 °C/60% RH): 0.8 μm
PSD result - D50 ([6]; T = 1 month, 25 °C/60% RH): 4.2 μm
PSD result - D90 ([6]; T = 1 month, 25 °C/60% RH): 14.4 μm
PSD result - D10 ([6]; T = 2 months, 25 °C/60% RH): 0.8 μm
PSD result - D50 ([6]; T = 2 months, 25 °C/60% RH): 3.8 μm
PSD result - D90 ([6]; T = 2 months, 25 °C/60% RH): 13.5 μm
SMILES: C=CC(=O)N1CCN(c2nc(=O)n(-c3c(C)ccnc3C(C)C)c3nc(-c4c(O)cccc4F)c(F)cc23)[C@@H](C)C1 [sotorasib amorphous]
